Patent US20090298752A1, “APLIDINE TREATMENT OF CANCERS” (PHARMA MAR, S.A., priority 1999, published 2009)
“Also recorded” adds a separate entry of the source.

Key:
[1] = Phase I, 1 h weekly infusion x3 q4wk: toxicity and pharmacokinetics; format: in vivo, human
[2] = test system: VEGF; assay: VEGF secretion from MOLT-4 cells (ELISA); format: cell-based, human
Procedure: Cells were treated for 1 h with 20 nM aplidine. VEGF secreted in the medium was measured by ELISA at the end of treatment and after 6 and 24 hours incubation in drug-free medium.

[3] = biological target: T1, HIF-1 (Homo sapiens, UniProt P27540+Q16665); assay: gel retardation assay, transcription factor binding; format: biochemical
T1 construct: endogenous in cells; host or cells: nuclear extracts
Procedure: Nuclear extracts were incubated with different aplidine concentrations and labelled oligonucleotides for 60 min. Using gel retardation assay the binding of HIF-1 or AP-1 has been monitored.
Nuclear extracts obtained from cells treated with different aplidine concentrations were incubated with labelled oligonucleotides for 60 min. Using gel retardation assay the binding of HIF-1 has been monitored.

[4] = stability testing of aplidine and lyophilised dosage form; format: physicochemical; conditions: solubilised; heat and light stress testing
Procedure: In a currently preferred embodiment freeze-drying was performed from a 500 mg/mL solution of aplidine in 40% (v/v) tert-butanol in Water for Injection (WfI) containing 25 mg/mL D-mannitol as bulking agent.

[5] = test system: VEGF promoter; assay: VEGF promoter activity, luciferase/renilla reporter gene system; format: cell-based; conditions: FIG. 13
[6] = test system: VEGF promoter; assay: VEGF promoter luciferase reporter in MOLT-4 cells; format: cell-based, human; conditions: luciferase after 24 hours vs renilla
Procedure: Cells were transfected with the VEGF promoter (spanning the first 1000 bases upstream the starting site linked to luciferase reporter gene and with a control plasmid containing the renilla reporter gene. Cells were then treated with different concentrations of aplidine and luciferase activity was measured after 24 hours and compared to renilla activity.

[7] = test system: CT-1, CT-2 and HT-29 cell lines; conditions: cited from earlier work
[8] = test system: primary gastric tumour specimens; assay: in vitro activity on primary gastric tumour specimens; format: cell-based, human
Procedure: Different model systems were evaluated to provide the basis for further clinical work. Selective antitumour activities were seen against two histologically different solid tumours: human gastric and prostate carcinomas. Potent in vitro activity to primary gastric tumour specimens or Hs746T gastric tumour cells is evident with IC30 values of 146 and 450 pM, respectively. […] activities were evaluated in nude rodents using sc implanted tumour fragments or hollow fibres (HF) containing tumour cells.

[9] = test system: lewis lung carcinomas; conditions: cited from earlier work
[10] = test system: gastric tumours; conditions: 1.25 mg/kg; cited from earlier work
[11] = test system: advanced solid tumours; assay: Phase I, 24 h infusion weekly x3 q4wk: antitumour activity; format: in vivo, human
Procedure: In this study 16 patients were treated. patients characteristics: median age 55 years, median PS 1, male/female 11/5, tumour types being as follows: Head and neck 5, kidney 2, colon 3, rectum 2, sarcoma 1 and melanoma 3, all pre-treated with chemotherapy (median 2 lines).
Aplidine was administered as a 24 h infusion at the following dose levels (Dls): 133 (3 pts), 266 (3 pts), 532 (3 pts), 1000 (3 pts), 2000 (3 pts) and 3000 (1 pt) mcg/m^2/wk×3 every 28 days.
To date, 25 pts (median age 58 yrs, median ECOG 1) with advanced, previously treated solid tumours or lymphoma have been treated in this phase I study. Using a schedule of APL 24 h weekly×3 followed by 1 wk rest, the following dose levels have been tested: 133 (n-3 pts), 266 (3), 532 (3), 1000 (3), 2000 (3), 4500 (3) and 3750 μg/m^2/wk (3). With 60 cycles (180 infusions) administered, all pts are evaluable for toxicity. The Maximum Tolerated Dose was 4500 μg/m^2/wk×3 with grade (G) 3 muscular toxicity (biopsy proven type II muscular atrophy). G4 CPK and G3 transaminitis the dose-limiting toxicities in 2 or 4 pts. […] All pts have been sampled for PK analysis by LC/MS/MS. […] As expected, neuromuscular toxicity is dose-limiting. The possible recommended dose of 3750 μg/m^2/wk×3 is being assessed.
A phase I trial was performed using 24 hour infusion weekly×3 followed by 1 wk rest. 32 patients (median age 58 yrs, median ECOG 1) with advanced, previously treated solid tumours have been treated. They have received 64 courses (median/pt: 2 (1-6)) across 8 dose levels: 133 (3 pts), 266 (3 pts), 532 (3 pts), 1000 (3 pts), 2000 (3 pts), 3000 (3 pts), 4500 (4 pts) and 3750 mcg/m^2/wk (10 pts). 2 out of 3 evaluable patients had DLT at 4500 mcg/m^2/wk: grade (G) 4 reversible neuromuscular toxicity (biopsy prevent type II muscular atrophy) and G4 CK increase (1 pt), and transient G3 transaminitis (1 pt). Other toxicities included G 1-2 malaise (most patients treated at ≧3000 mcg/m^2/wk), muscle cramps, G 1-2 emesis (responsive to antiemetics) and injection site reaction (very common and concentration-dependent). All patients have been sampled for PK analysis by a LC/MS/MS method. Pharmacokinetics are linear and the profiles fit a 2 compartment open model. […] Maintained plasma levels >1 ng/ml (active in vitro) were obtained at doses ≧3000 mcg/m^2. […] Four additional patients had minor responses or stable disease for >4 months. […] The recommended dose for future trials, 3750 mcg/m^2/wk×3, administered through a central vein catheter, is feasible and associated with mild toxicity.

[12] = test system: MOLT-4 cells; assay: activity of aplidine on MOLT-4 cells with VEGF added; format: cell-based, human; conditions: VEGF 10 ng/ml, 10% FCS, low concentrations of aplidine

T1 sequence (Q16665 whole entry): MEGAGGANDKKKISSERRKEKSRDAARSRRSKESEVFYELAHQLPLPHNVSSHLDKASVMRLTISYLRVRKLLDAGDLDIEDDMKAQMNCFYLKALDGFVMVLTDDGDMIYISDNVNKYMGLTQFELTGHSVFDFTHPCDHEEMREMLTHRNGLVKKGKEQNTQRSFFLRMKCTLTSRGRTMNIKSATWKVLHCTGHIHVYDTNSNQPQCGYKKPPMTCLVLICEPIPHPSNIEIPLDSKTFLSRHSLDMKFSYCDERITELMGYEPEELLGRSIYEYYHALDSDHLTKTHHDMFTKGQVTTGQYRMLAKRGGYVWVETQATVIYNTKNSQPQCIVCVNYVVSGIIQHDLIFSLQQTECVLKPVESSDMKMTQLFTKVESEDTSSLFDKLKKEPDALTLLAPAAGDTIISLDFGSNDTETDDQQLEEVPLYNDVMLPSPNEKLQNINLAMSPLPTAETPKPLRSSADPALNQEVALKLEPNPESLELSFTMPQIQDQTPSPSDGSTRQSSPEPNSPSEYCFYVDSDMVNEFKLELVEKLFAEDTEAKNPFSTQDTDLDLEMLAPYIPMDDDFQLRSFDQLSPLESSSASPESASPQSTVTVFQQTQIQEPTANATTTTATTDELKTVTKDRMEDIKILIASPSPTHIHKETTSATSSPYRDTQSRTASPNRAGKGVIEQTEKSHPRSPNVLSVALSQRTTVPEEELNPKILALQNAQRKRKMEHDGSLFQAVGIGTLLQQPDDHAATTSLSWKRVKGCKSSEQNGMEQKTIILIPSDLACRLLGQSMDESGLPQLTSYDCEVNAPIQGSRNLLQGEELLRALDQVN
T1 sequence (P27540 whole entry): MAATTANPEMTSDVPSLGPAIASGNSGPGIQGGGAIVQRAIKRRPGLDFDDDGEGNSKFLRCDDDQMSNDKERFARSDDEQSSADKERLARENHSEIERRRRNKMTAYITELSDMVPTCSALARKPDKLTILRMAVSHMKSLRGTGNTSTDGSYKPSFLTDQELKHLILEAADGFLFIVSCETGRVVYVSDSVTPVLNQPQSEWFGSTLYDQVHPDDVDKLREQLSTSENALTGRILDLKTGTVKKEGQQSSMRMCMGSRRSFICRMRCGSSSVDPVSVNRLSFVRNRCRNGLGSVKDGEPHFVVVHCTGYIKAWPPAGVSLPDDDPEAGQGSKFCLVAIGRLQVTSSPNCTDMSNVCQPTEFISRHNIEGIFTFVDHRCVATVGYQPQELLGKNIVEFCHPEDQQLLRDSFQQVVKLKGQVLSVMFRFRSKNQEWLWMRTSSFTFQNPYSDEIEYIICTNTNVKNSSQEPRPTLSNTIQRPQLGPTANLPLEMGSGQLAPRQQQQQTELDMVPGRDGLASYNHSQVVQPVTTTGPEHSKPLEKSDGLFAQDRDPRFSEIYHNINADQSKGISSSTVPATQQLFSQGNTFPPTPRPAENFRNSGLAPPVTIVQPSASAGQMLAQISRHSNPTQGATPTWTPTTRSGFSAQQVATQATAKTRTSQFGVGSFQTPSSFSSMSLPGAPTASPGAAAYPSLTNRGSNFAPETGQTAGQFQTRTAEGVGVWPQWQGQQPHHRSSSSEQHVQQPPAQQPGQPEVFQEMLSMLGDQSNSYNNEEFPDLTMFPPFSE

aplidine
Alk. Phos. G3 (worst toxicity per patient) ([1]; 2700 mcg/m^2/wk x3, 8 patients, footnote DLT): (1)^(2) | Transaminitis G3 (worst toxicity per patient) ([1]; 2700 mcg/m^2/wk x3, 8 patients, one with Hepatitis C, 2 reversible by day 8, 1 DLT): 4 | Myalgia G2 (worst toxicity per patient) ([1]; 3600 mcg/m^2/wk x3, 2 patients): 1 | intracellular VEGF [2]: increased intracellular accumulation of VEGF | VEGF secretion, in words ([2]; 1 h with 20 nM aplidine): strong reduction of VEGF secretion; also recorded: severely inhibit production; also recorded: Blocks VEGF Secretion | concentration at which block of VEGF secretion is already observable ([2]; concentration-dependent): 5 nm | binding of HIF-1 to consensus DNA sequence ([3]; nuclear extracts from cells treated with aplidine): does not block the binding | binding of HIF-1 to consensus DNA sequence ([3]; nuclear extracts incubated with aplidine, 60 min): does not block the binding; also recorded: did not change the ability | degradation [4]: substantial degradation | promoter activity of VEGF, in words [5]: does not affect the promoter activity of VEGF | activity of transfected VEGF promoter, in words [6]: dose not decrease the activity of VEGF promoter; also recorded: did not decrease the transcription of VEGF | cytotoxic activity [7]: dose-dependent cytotoxic activity | IC30 [8]: 146 pM | activity in SC implanted tumour [9]: active | T/C [10]: 14% | clinical response, pre-treated advanced melanoma ([11]; DL 532 mcg/m^2/w, 1 patient): clinical improvement | response, Patient #034, thyroid medullary carcinoma ([11]; decrease in CEA marker): Clinical improvement and SD at lung lymphangitis | duration of minor responses or stable disease ([11]; four additional patients): > 4 months | response, Patient #008, non measurable metastatic melanoma ([11]; highly pre-treated): clinical improvement and tumour shrinkage | tumour shrinkage, Patient #032, renal carcinoma ([11]; in vivo): 20% | duration of clinical improvement, advanced melanoma resistant to DTIC/interferon ([11]; one patient): > 30 weeks | effect of added VEGF on activity of aplidine [12]: slightly reduced the activity of low concentrations of aplidine; also recorded: partially abolish the activity of aplidine
